Among the data in patent US9670227B2, “Thienopyrimidine derivatives, a process for their preparation and pharmaceutical compositions containing them” (LES LABORATOIRES SERVIER, priority 2013, dated 2017) are IC50 values, retold here.

Test [1] deals with H929 multiple myeloma tumour line. Briefly: In vitro cytotoxicity, Microculture Tetrazolium Assay. As to conditions: Homo sapiens, NCI-H929, 48 h, H929 cells, 48 hours exposure, MTT; read-out: IC50 (μM) MTT H929. The test is classed as cell-based. The method, then: The cytotoxicity studies were carried out on the H929 multiple myeloma tumour line.
The cells are distributed onto microplates and exposed to the test compounds for 48 hours.

The target of another test is Mcl-1 protein (UniProtKB primary accession number: Q07820) (Homo sapiens, UniProt Q07820). Put plainly: Inhibition of Mcl-1 by fluorescence polarisation, Method 1. The test is classed as binding. As to conditions: fluorescence polarisation test; Method 2 values are underlined in the patent (underlining not visible here); read-out: IC50 (M) Mcl-1 FP. The gist of the method:
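Binding was measured as fluorescence polarisation of a fluorescein-labelled ligand (1 nM) displaced from Mcl-1 (5 nM), both final. Compounds ran as 11-point series with final DMSO at 5%.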

Mcl-1 protein, sequence (Q07820 whole entry): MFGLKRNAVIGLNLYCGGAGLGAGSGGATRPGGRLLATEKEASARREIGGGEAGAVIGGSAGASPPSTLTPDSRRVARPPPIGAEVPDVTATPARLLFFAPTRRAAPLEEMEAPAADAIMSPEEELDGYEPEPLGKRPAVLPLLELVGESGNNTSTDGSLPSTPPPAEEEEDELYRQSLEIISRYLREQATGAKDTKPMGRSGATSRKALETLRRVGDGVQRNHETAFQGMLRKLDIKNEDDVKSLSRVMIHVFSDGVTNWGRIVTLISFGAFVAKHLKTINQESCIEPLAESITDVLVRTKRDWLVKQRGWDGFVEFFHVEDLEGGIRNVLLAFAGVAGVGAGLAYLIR

Regarding `Cc1c(-c2c(-c3ccc(F)cc3)sc3ncnc(OC(Cc4ccccc4OCc4ccnc(OCc5ccncc5)n4)C(=O)O)c23)ccc(OCCN2CCN(C)CC2)c1Cl` [Example 59, (2R)-2-{[(5Sa)-5-{3-chloro-2-methyl-4-[2-(4-methylpiperazin-1-yl)ethoxy]phenyl}-6-(4-fluorophenyl)thieno[2,3-d]pyrimidin-4-yl]oxy}-3-(2-{[2-(pyridin-4-ylmethoxy)pyrimidin-4-yl]methoxy}phenyl)propanoic acid], the IC50 (usually the concentration at which inhibition is half-maximal) in test [1] came out at 0.021 µM; at Mcl-1 protein it was 4e-09 M.

`Cc1c(-c2c(-c3ccc(F)cc3)sc3ncnc(OC(Cc4ccccc4OCc4ccnc(OCc5cncn5C)n4)C(=O)O)c23)ccc(OCCN2CCN(C)CC2)c1Cl` [Example 60, (2R)-2-{[(5Sa)-5-{3-chloro-2-methyl-4-[2-(4-methylpiperazin-1-yl)ethoxy]phenyl}-6-(4-fluorophenyl)thieno[2,3-d]pyrimidin-4-yl]oxy}-3-[2-({2-[(1-methyl-1H-imidazol-5-yl)methoxy]pyrimidin-4-yl}methoxy)phenyl]propanoic acid]: the IC50 in test [1] was 0.17 µM; at Mcl-1 protein, 2.4e-09 M.

On to `CCCOc1nccc(COc2ccccc2CC(Oc2ncnc3sc(-c4ccc(F)cc4)c(-c4ccc(OCCN5CCN(C)CC5)c(Cl)c4C)c23)C(=O)O)n1` [Example 61, (2R)-2-{[(5Sa)-5-{3-chloro-2-methyl-4-[2-(4-methylpiperazin-1-yl)ethoxy]phenyl}-6-(4-fluorophenyl)thieno[2,3-d]pyrimidin-4-yl]oxy}-3-{2-[(2-propoxypyrimidin-4-yl)methoxy]phenyl}propanoic acid], for which the IC50 in test [1] amounted to 0.01 µM; on Mcl-1 protein it was 6.7e-09 M.

With `CCOCCOc1nccc(COc2ccccc2CC(Oc2ncnc3sc(-c4ccc(F)cc4)c(-c4ccc(OCCN5CCN(C)CC5)c(Cl)c4C)c23)C(=O)O)n1` [Example 64, (2R)-2-{[(5Sa)-5-{3-chloro-2-methyl-4-[2-(4-methylpiperazin-1-yl)ethoxy]phenyl}-6-(4-fluorophenyl)thieno[2,3-d]pyrimidin-4-yl]oxy}-3-(2-{[2-(2-ethoxyethoxy)pyrimidin-4-yl]methoxy}phenyl)propanoic acid], the figures for the IC50 (in test [1]; at Mcl-1 protein) were 0.018 µM and 4.4e-09 M, respectively.

Consider `CSc1nccc(COc2ccccc2CC(Oc2ncnc3sc(-c4ccc(F)cc4)c(-c4ccc(OCCN5CCN(C)CC5)c(Cl)c4C)c23)C(=O)O)n1` [Example 65, (2R)-2-{[(5Sa)-5-{3-chloro-2-methyl-4-[2-(4-methylpiperazin-1-yl)ethoxy]phenyl}-6-(4-fluorophenyl)thieno[2,3-d]pyrimidin-4-yl]oxy}-3-(2-{[2-(methylsulfanyl)pyrimidin-4-yl]methoxy}phenyl)propanoic acid], for which the IC50 stood at 0.043 µM in test [1] and 1e-08 M on Mcl-1 protein.

As for `COCCCSc1nccc(COc2ccccc2CC(Oc2ncnc3sc(-c4ccc(F)cc4)c(-c4ccc(OCCN5CCN(C)CC5)c(Cl)c4C)c23)C(=O)O)n1` [Example 66, (2R)-2-{[(5Sa)-5-{3-chloro-2-methyl-4-[2-(4-methylpiperazin-1-yl)ethoxy]phenyl}-6-(4-fluorophenyl)thieno[2,3-d]pyrimidin-4-yl]oxy}-3-[2-({2-[(3-methoxypropyl)sulfanyl]pyrimidin-4-yl}methoxy)phenyl]propanoic acid], the IC50 came to 0.037 µM in test [1] and 4.6e-09 M on Mcl-1 protein.

For `COCCSc1nccc(COc2ccccc2CC(Oc2ncnc3sc(-c4ccc(F)cc4)c(-c4ccc(OCCN5CCN(C)CC5)c(Cl)c4C)c23)C(=O)O)n1` [Example 67, (2R)-2-{[(5Sa)-5-{3-chloro-2-methyl-4-[2-(4-methylpiperazin-1-yl)ethoxy]phenyl}-6-(4-fluorophenyl)thieno[2,3-d]pyrimidin-4-yl]oxy}-3-[2-({2-[(2-methoxyethyl)sulfanyl]pyrimidin-4-yl}methoxy)phenyl]propanoic acid], the IC50 in test [1] is 0.03 µM; on Mcl-1 protein it was 3.4e-09 M.

In the case of `Cc1c(-c2c(-c3ccc(F)cc3)sc3ncnc(OC(Cc4ccccc4OCc4ccncn4)C(=O)O)c23)ccc(OCCN2CCN(C)CC2)c1Cl` [Example 68, (2R)-2-{[(5Sa)-5-{3-chloro-2-methyl-4-[2-(4-methylpiperazin-1-yl)ethoxy]phenyl}-6-(4-fluorophenyl)thieno[2,3-d]pyrimidin-4-yl]oxy}-3-[2-(pyrimidin-4-ylmethoxy)phenyl]propanoic acid], the results for the IC50 (in test [1]; on Mcl-1 protein) were 0.035 µM and 9.1e-09 M, respectively.

For `Cc1c(-c2c(-c3ccc(F)cc3)sc3ncnc(OC(Cc4ccccc4OCc4ccnn4C4CCCC4)C(=O)O)c23)ccc(OCCN2CCN(C)CC2)c1Cl` [Example 72, (2R)-2-{[(5Sa)-5-{3-chloro-2-methyl-4-[2-(4-methylpiperazin-1-yl)ethoxy]phenyl}-6-(4-fluorophenyl)thieno[2,3-d]pyrimidin-4-yl]oxy}-3-{2-[(1-cyclopentyl-1H-pyrazol-5-yl)methoxy]phenyl}propanoic acid], the IC50 in test [1] stood at 0.04 µM; on Mcl-1 protein it was 9.3e-09 M.

As to `Cc1c(-c2c(-c3ccc(F)cc3)sc3ncnc(OC(Cc4ccccc4OCc4ccnn4C4CCCCC4)C(=O)O)c23)ccc(OCCN2CCN(C)CC2)c1Cl` [Example 73, (2R)-2-{[(5Sa)-5-{3-chloro-2-methyl-4-[2-(4-methylpiperazin-1-yl)ethoxy]phenyl}-6-(4-fluorophenyl)thieno[2,3-d]pyrimidin-4-yl]oxy}-3-{2-[(1-cyclohexyl-1H-pyrazol-5-yl)methoxy]phenyl}propanoic acid], the results for the IC50 (in test [1]; on Mcl-1 protein) were 0.122 µM and 8.3e-09 M, respectively.

Regarding `Cc1c(-c2c(-c3ccc(F)cc3)sc3ncnc(OC(Cc4ccccc4OCc4ccnn4-c4ccccc4)C(=O)O)c23)ccc(OCCN2CCN(C)CC2)c1Cl` [Example 74, (2R)-2-{[(5Sa)-5-{3-chloro-2-methyl-4-[2-(4-methylpiperazin-1-yl)ethoxy]phenyl}-6-(4-fluorophenyl)thieno[2,3-d]pyrimidin-4-yl]oxy}-3-{2-[(1-phenyl-1H-pyrazol-5-yl)methoxy]phenyl}propanoic acid], the figures for the IC50 (in test [1]; at Mcl-1 protein) were 0.365 µM and 1.6e-08 M, respectively.

In the case of `Cc1c(-c2c(-c3ccc(F)cc3)sc3ncnc(OC(Cc4ccccc4OCc4ccnn4C4CCOCC4)C(=O)O)c23)ccc(OCCN2CCN(C)CC2)c1Cl` [Example 75, (2R)-2-{[(5Sa)-5-{3-chloro-2-methyl-4-[2-(4-methylpiperazin-1-yl)ethoxy]phenyl}-6-(4-fluorophenyl)thieno[2,3-d]pyrimidin-4-yl]oxy}-3-(2-{[1-(tetrahydro-2H-pyran-4-yl)-1H-pyrazol-5-yl]methoxy}phenyl)propanoic acid], the IC50 in test [1] was found to be 0.11 µM; on Mcl-1 protein, 4e-09 M.

Turning to `Cc1c(-c2c(-c3ccc(F)cc3)sc3ncnc(OC(Cc4ccccc4OCc4ccnn4CC4CC4)C(=O)O)c23)ccc(OCCN2CCN(C)CC2)c1Cl` [Example 78, (2R)-2-{[(5Sa)-5-{3-chloro-2-methyl-4-[2-(4-methylpiperazin-1-yl)ethoxy]phenyl}-6-(4-fluorophenyl)thieno[2,3-d]pyrimidin-4-yl]oxy}-3-(2-{[1-(cyclopropylmethyl)-1H-pyrazol-5-yl]methoxy}phenyl)propanoic acid], the IC50 in test [1] worked out at 0.033 µM; at Mcl-1 protein, 6.6e-09 M.
